Values after ≈ are worked out from the molar mass of the structure shown.
Experiments:
[1] = system: Aspergillus fumigatus ATCC 1028; experiment: Antifungal activity test (in vitro), MIC; assay type: cell-based; conditions: ATCC1028
Procedure: Minimum inhibitory concentration (MIC) of each of the compounds obtained in Examples 1 to 12 was measured for respective fungi at MOS Pharm Service, by the methods described in Antimicrobial Agents and Chemotherapy, vol. 3, pp. 40-48 (1973), Antimicrobial Agents and Chemotherapy, vol. 33, pp. 215-222 (1989) and Antimicrobial Agents and Chemotherapy, vol. 38, pp. 2362-2368 (1994). The measuring conditions are shown in the following. In this case, Voriconazol was used as a comparative compound.
Aspergillus fumigatus ATCC 1028; Cultured at 28° C. for 2 days using potato dextrose broth, and this was used as a cell suspension.
Each of the compounds of the invention was adjusted to a concentration of 1% by weight using dimethyl sulfoxide (DMSO) and a medium similar to the respective medium used in the above-mentioned fungal culture, having a final concentration of from 0.001 to 100 μg/ml, was prepared. Each of the inoculation cell suspensions prepared by the above-mentioned methods was inoculated onto this agar plate. […] In this connection, Voriconazol was used as the comparative compound C-1.

[2] = system: Candida albicans ATCC 10231; experiment: Antifungal activity test (in vitro), MIC; assay type: cell-based; conditions: ATCC10231
Procedure: (§1) Minimum inhibitory concentration (MIC) of each of the compounds obtained in Examples 1 to 12 was measured for respective fungi at MOS Pharm Service, by the methods described in Antimicrobial Agents and Chemotherapy, vol. 3, pp. 40-48 (1973), Antimicrobial Agents and Chemotherapy, vol. 33, pp. 215-222 (1989) and Antimicrobial Agents and Chemotherapy, vol. 38, pp. 2362-2368 (1994). The measuring conditions are shown in the following. In this case, Voriconazol was used as a comparative compound. Candida albicans ATCC 10231 and ATCC 44858; Cultured at 37° C. for 20 hours using fluid Sabouraud medium, and this was used as a cell suspension. Each of the compounds of the invention was adjusted to a concentration of 1% by weight using dimethyl sulfoxide (DMSO) and a medium similar to the respective medium used in the above-mentioned fungal culture, having a final concentration of from 0.001 to 100 μg/ml, was prepared. Each of the inoculation cell suspensions prepared by the above-mentioned methods was inoculated onto this agar plate. […] In this connection, Voriconazol was used as the comparative compound C-1.

[3] = system: Trichophyton mentagrophytes ATCC 9533; experiment: Antifungal activity test (in vitro), MIC; assay type: cell-based; conditions: ATCC9533
Procedure: as §1, with “Trichophyton mentagrophytes” for “Candida albicans”, “9533;” for “10231 and ATCC 44858;”, “28°” for “37°”, “3 days” for “20 hours”

[4] = system: Microsporum canis ATCC 36299; experiment: Antifungal activity test (in vitro), MIC; assay type: cell-based; conditions: ATCC36299
Procedure: as §1, with “Microsporum canis” for “Candida albicans”, “36299;” for “10231 and ATCC 44858;”, “30°” for “37°”, “2 days” for “20 hours”

[5] = system: Pityrosporum ovale ATCC 38593; experiment: Antifungal activity test (in vitro), MIC; assay type: cell-based; conditions: Malassezia furfur, ATCC38593
Procedure: as §1, with “Cryptococcus neoformans” for “Candida albicans”, “24067, Pityrosporum ovale” for “10231 and”, “38593;” for “44858;”, “2 day” for “20 hours”

[6] = system: Cryptococcus neoformans ATCC 24067; experiment: Antifungal activity test (in vitro), MIC; assay type: cell-based; conditions: ATCC24067
Procedure: as §1, with “Cryptococcus neoformans” for “Candida albicans”, “24067, Pityrosporum ovale” for “10231 and”, “38593;” for “44858;”, “2 day” for “20 hours”

[7] = system: Aspergillus niger ATCC 8740; experiment: Antifungal activity test (in vitro), MIC; assay type: cell-based; conditions: ATCC8740
Procedure: as §1, with “Aspergillus niger” for “Candida albicans”, “8740;” for “10231 and ATCC 44858;”, “28°” for “37°”, “2 days” for “20 hours”, “potato dextrose broth,” for “fluid Sabouraud medium,”

[8] = system: Candida albicans ATCC 44858; experiment: Antifungal activity test (in vitro), MIC; assay type: cell-based; conditions: ATCC44858
Procedure: as §1

[9] = system: Trichophyton rubrum ATCC 10218; experiment: Antifungal activity test (in vitro), MIC; assay type: cell-based; conditions: ATCC10218
Procedure: as §1, with “Trichophyton rubrum” for “Candida albicans”, “10218;” for “10231 and ATCC 44858;”, “28°” for “37°”, “3 days” for “20 hours”

SMILES | MIC [1] [µg/mL] | MIC [2] [µg/mL] | MIC [3] [µg/mL] | MIC [4] [µg/mL] | MIC [5] [µg/mL] | MIC [6] [µg/mL] | MIC [7] [µg/mL] | MIC [8] [µg/mL] | MIC [9] [µg/mL] | melting point [°C]
Cc1ccc(C2=CCN([C@H](C)[C@](O)(Cn3cncn3)c3ccc(F)cc3F)CC2)nc1 [I-5, (2R,3R)-2-(2,4-difluorophenyl)-3-(5-methyl-3′,6′-dihydro-2,4′-bipyridin-1′(2′H)-yl)-1-(1,2,4-triazol-1-yl)butan-2-ol] | 3 (≈ 7.05 µM) | 0.1 (≈ 0.235 µM) | 0.1 (≈ 0.235 µM) | 1 (≈ 2.35 µM) | 0.003 (≈ 0.00705 µM) | 0.03 (≈ 0.0705 µM) |  |  |  | 115 to 117
C[C@@H](c1ncncc1F)[C@](O)(Cn1cncn1)c1ccc(F)cc1F [C-1, Voriconazol, reference compound] | 0.3 (≈ 0.859 µM) | 0.3 (≈ 0.859 µM) | 0.1 (≈ 0.286 µM) | 3 (≈ 8.59 µM) | 0.3 (≈ 0.859 µM) | 0.1 (≈ 0.286 µM) | 0.1 (≈ 0.286 µM) | 0.3 (≈ 0.859 µM) | 0.3 (≈ 0.859 µM) | 
Cc1ccc(C2=CCN([C@H](C)[C@](O)(Cn3cncn3)c3ccc(F)cc3F)CC2)nc1C [I-4, (2R,3R)-2-(2,4-difluorophenyl)-3-(5,6-dimethyl-3′,6′-dihydro-2,4′-bipyridin-1′(2′H)-yl)-1-(1,2,4-triazol-1-yl)butan-2-ol] | 10 (≈ 22.8 µM) | 0.3 (≈ 0.683 µM) | 0.3 (≈ 0.683 µM) | 1 (≈ 2.28 µM) | 10 (≈ 22.8 µM) | 0.1 (≈ 0.228 µM) |  |  |  | 85.5 to 87.5
C[C@@H](N1CC=C(c2ccc(F)cn2)CC1)[C@](O)(Cn1cncn1)c1ccc(F)cc1F [I-7, (2R,3R)-2-(2,4-difluorophenyl)-3-(5-fluoro-3′,6′-dihydro-2,4′-bipyridin-1′(2′H)-yl)-1-(1,2,4-triazol-1-yl)butan-2-ol] | 10 (≈ 23.3 µM) | 0.1 (≈ 0.233 µM) | 1 (≈ 2.33 µM) | 10 (≈ 23.3 µM) | 0.01 (≈ 0.0233 µM) | 0.3 (≈ 0.699 µM) |  |  |  | 148 to 150
C[C@@H](Oc1cc(-c2ccccn2)ccn1)[C@](O)(Cn1cncn1)c1ccc(F)cc1F [I-9, (2R,3R)-3-(2,4′-bipyridin-2′-yloxy)-2-(2,4-difluorophenyl)-1-(1,2,4-triazol-1-yl)butan-2-ol] | 30 (≈ 70.9 µM) | 0.3 (≈ 0.709 µM) | 10 (≈ 23.6 µM) | 10 (≈ 23.6 µM) | 0.3 (≈ 0.709 µM) | 0.3 (≈ 0.709 µM) |  |  |  | 178 to 180

Now from value to compound, other results behind:

MIC [1] [µg/mL] | MIC [2] [µg/mL] | MIC [3] [µg/mL] | MIC [4] [µg/mL] | MIC [5] [µg/mL] | MIC [6] [µg/mL] | MIC [7] [µg/mL] | MIC [8] [µg/mL] | MIC [9] [µg/mL] | SMILES | melting point [°C]
10 (≈ 23.2 µM) | 0.1 (≈ 0.232 µM) | 1 (≈ 2.32 µM) | 10 (≈ 23.2 µM) | 0.01 (≈ 0.0232 µM) | 0.3 (≈ 0.695 µM) |  |  |  | C[C@@H](N1CCC(c2ccc(F)cn2)CC1)[C@](O)(Cn1cncn1)c1ccc(F)cc1F [I-2, (2R,3R)-2-(2,4-difluorophenyl)-3-[4-(5-fluoropyridin-2-yl)piperidin-1-yl]-1-(1,2,4-triazol-1-yl)butan-2-ol] | 100 to 102
100 (≈ 242 µM) | 0.1 (≈ 0.242 µM) | 100 (≈ 242 µM) | 100 (≈ 242 µM) | 10 (≈ 24.2 µM) | 10 (≈ 24.2 µM) |  |  |  | C[C@@H](N1CCCC(c2ccccn2)C1)[C@](O)(Cn1cncn1)c1ccc(F)cc1F (stereo partly drawn) [I-12, (2R,3R)-2-(2,4-difluorophenyl)-3-(3-pyridin-2-ylpiperidin-1-yl)-1-(1,2,4-triazol-1-yl)butan-2-ol] | 75 to 78
